Laboratory results from publication PMC10584170, “Machine learning-based phenotypic imaging to characterise the targetable biology of Plasmodium falciparum male gametocytes for the development of transmission-blocking antimalarials” (PLOS Pathogens, 2023).

What was measured:
[1] = system: P. falciparum female gametocytes; assay: P. falciparum Dual Gamete Formation Assay (PfDGFA), female readout (Pfs25-positive female gametes); type: cell-based, Plasmodium falciparum NF54; settings: for % inhibition female (individual replicates) R1: replicate R1; for % inhibition female (individual replicates) R3: replicate R3; for % inhibition female (individual replicates) R4: replicate R4; for Average inhibition female (%): average of replicates
Description: (§1) P. falciparum NF54 (originally isolated from an imported malaria case in the Netherlands in the 1980s; BEI Resources, cat. No. MRA-1000) strain asexual parasites were maintained between 0.3–5% parasitaemia by regular passage in complete culture medium (RPMI supplemented with 25 mM HEPES, 50 μg ml^−1 hypoxanthine, 4.8 g l^−1 NaHCO3, 2mM L-glutamine, 5% pooled type AB serum, 0.5% Albumax II (Gibco)) at 4% haematocrit in washed whole blood (National Blood and Transfusion Service or Centro de Transfusiones de la Comunidad de Madrid CTCM) under a 1% O2/3% CO2/96% N2 environment. Gametocytes were induced by seeding culture flasks at 2% parasitaemia/4% haematocrit and subjecting them to daily medium changes for 14 days whilst maintaining a temperature of 37°C at all times. On Day 14, the maturity of gametocytes was assessed by quantifying male gametogenesis (exflagellation). A 20 μl sample of gametocyte culture was mixed with equal volume of ookinete medium (complete culture medium supplemented with 0.1 μM xanthurenic acid) at room temperature and transferred to a haemocytometer. After 20 min at room temperature, exflagellation was accurately quantified as described in Delves et al. 2016 [17].
(§2) The Pf DGFA was performed as described in Delves et al. 2016 [17]. […] Plates were then incubated for 24 h at 37°C in a humidified box under a 1% O2/3% CO2/96% N2 gas mix. Gametogenesis was triggered by addition of 10 μl per well of ookinete medium + 0.27 μg ml^-1 Cy3-labelled anti-Pfs25 antibody. Plates were incubated on a metal block at 4°C for 4 min to ensure even cooling, then 28°C for a further 4 min. Exflagellation was recorded by capturing 10 frames over 1 s under brightfield illumination using a x4 objective with a 1.5x zoom (effectively x6) attached to an automated Nikon Ti fluorescence microscope. After recording exflagellation, plates were incubated for a further 24 h in the dark at 28°C to ensure maximal expression of Pfs25 by female gametes. The plates were then returned to the microscope and female gametes imaged at x6 using fluorescence microscopy.
(§3) Exflagellation centres and female gametes were quantified using custom image analysis pipelines developed within ICY Bioimage Analysis (https://icy.bioimageanalysis.org/).

[2] = system: P. falciparum male gametocytes; assay: P. falciparum Dual Gamete Formation Assay (PfDGFA), male readout (exflagellation); type: cell-based, Plasmodium falciparum NF54; settings: for % inhibition male (individual replicates) R1: replicate R1; for % inhibition male (individual replicates) R3: replicate R3; for % inhibition male (individual replicates) R4: replicate R4; for Average inhibition male (%): average of replicates; for Activity: hit = >50% inhibition in male or female readout in at least 3 replicates, 0 = no class assigned
Description: as §1, §2, §3

[3] = PfDGFA at 2µM, 24h preincubation with gametocytes prior to induction of gametogenesis
[4] = PfDGFA at 2µM, 24h preincubation
[5] = 2µM, 24h preincubation with gametocytes prior to induction of gametogenesis
[6] = 2µM, 24h preincubation, number of replicates with >50% inhibition in the female readout
[7] = 2µM, 24h preincubation, number of replicates with >50% inhibition in the male readout
[8] = 2µM, 24h preincubation, hits selected on >50% inhibition in the female readout across replicates
[9] = 2µM, 24h preincubation, hits selected on >50% inhibition in the male readout across replicates

| SMILES | Average inhibition female (%) [1, 5] [%] | % inhibition female (individual replicates) R1 [1, 5] [%] | % inhibition female (individual replicates) R3 [1, 5] [%] | % inhibition female (individual replicates) R4 [1, 5] [%] | HitlevelF [1, 6] | Average inhibition male (%) [2, 5] [%] | % inhibition male (individual replicates) R1 [2, 5] [%] | % inhibition male (individual replicates) R3 [2, 5] [%] | % inhibition male (individual replicates) R4 [2, 5] [%] | HitlevelM [2, 7] | HitlevelF [1, 8] | HitlevelM [2, 9] | Activity [2, 4] | also measured |
| --- | --- | --- | --- | --- | --- | --- | --- | --- | --- | --- | --- | --- | --- | --- |
| COc1cc2c(c(Cl)c1OC)CCN(C(=O)C(F)(F)F)CC2c1ccccc1 (stereo not drawn) [TCMDC-132071] | – | – | – | – | – | – | – | – | – | – | – | – | – | % inhibition female (individual replicates) R1 [1, 3]: 4.5%; % inhibition female (individual replicates) R3 [1, 3]: -4.3%; % inhibition female (individual replicates) R4 [1, 3]: 10.0%; Average inhibition female (%) [1, 4]: 2.1%; % inhibition male (individual replicates) R1 [2, 3]: 5.3%; % inhibition male (individual replicates) R3 [2, 3]: 19.8%; % inhibition male (individual replicates) R4 [2, 3]: -8.3%; Average inhibition male (%) [2, 4]: 3.7% |
| CCc1c(CCNCCCCCCNCCc2ccc3c(c2C)OCO3)ccc2c1OCO2.Cl [TCMDC-132093] | 43.6 | 28.1 | 50.1 | 47.8 | 1 | 59.8 | 52.8 | 37.9 | 88.2 | 3 | – | – | – | – |
| COc1ccc(-c2nc3c(N)nc(N)nc3nc2C(C)C)cc1 [TCMDC-132109] | 17.4 | 48.8 | -20.3 | 37.3 | – | -8.8 | -5.9 | -23.4 | -14.5 | – | 0 | 0 | 0 | – |
| Cl.N#Cc1c(F)cc(N2CCC(NCC[C@H](N)Cc3ccc(F)c(F)c3)CC2)cc1F [TCMDC-132121] | 20.0 | 13.8 | 22.9 | 12.3 | 0 | 31.7 | 33.4 | 31.1 | 56.8 | 1 | – | – | – | – |
| O=C(O)C(F)(F)F.O=S(=O)(NCCN1CCCC1)c1ccc(-c2cccc(CNC3Cc4ccccc4C3)c2)s1 [TCMDC-132217] | 35.5 | 25.9 | 15.7 | 46.4 | 1 | 13.9 | 10.5 | 7.6 | 38.2 | 0 | – | – | – | – |
| O=C(O)C(F)(F)F.O=S(=O)(NCCN1CCCC1)c1ccc(-c2cccc(CNC3Cc4ccccc4C3)c2)cc1F [TCMDC-132221] | 29.0 | 30.1 | 27.5 | 20.7 | 0 | 11.1 | 3.1 | – | 19.5 | 0 | – | – | – | – |
| COc1ccc(CNCc2ccc(F)cc2)cc1-c1cccc(S(=O)(=O)NCCN2CCCC2)c1.O=C(O)C(F)(F)F [TCMDC-132223] | 23.7 | 23.5 | 4.6 | 54.2 | 1 | -1.9 | -0.6 | 2.2 | -9.8 | 0 | – | – | – | – |
| CN1CCC(NCc2ccc(-c3ccc(S(=O)(=O)NCc4ccccc4)cc3)cc2)CC1.O=C(O)C(F)(F)F [TCMDC-132227] | 19.1 | 9.9 | 31.6 | 17.4 | 0 | 43.4 | 32.1 | – | 43.3 | 1 | – | – | – | – |
| O=C(O)C(F)(F)F.O=S(=O)(NCCN1CCCC1)c1ccc(-c2ccc(CNC3Cc4ccccc4C3)cc2)cc1 [TCMDC-132229] | 26.6 | 21.5 | 7.4 | 45.3 | 0 | 10.7 | 12.4 | 8.7 | 9.5 | 0 | – | – | – | – |
| CN1CCC(NCc2ccc(-c3ccc(S(=O)(=O)NCc4ccccc4)s3)cc2)CC1.O=C(O)C(F)(F)F [TCMDC-132231] | 9.7 | 17.2 | 1.4 | 10.3 | – | 34.4 | 32.6 | – | 32.4 | – | 0 | 0 | 0 | – |
| O=C(O)C(F)(F)F.O=S(=O)(NCCN1CCCC1)c1ccc(-c2ccc(CNC3Cc4ccccc4C3)cc2)s1 [TCMDC-132234] | 29.4 | 25.4 | 5.2 | 45.9 | 0 | 17.3 | 15.3 | 1.0 | 34.9 | 0 | – | – | – | – |
| CN1CCC(NCc2ccc(-c3cccc(S(=O)(=O)NCc4ccccc4)c3)cc2)CC1.O=C(O)C(F)(F)F [TCMDC-132238] | 15.2 | 18.5 | -4.9 | 24.5 | – | 25.7 | 17.7 | -3.8 | 50.9 | – | 0 | 1 | 0 | – |
| O=C(O)C(F)(F)F.O=S(=O)(NCCN1CCCC1)c1cccc(-c2ccc(CNC3Cc4ccccc4C3)cc2)c1 [TCMDC-132241] | 16.9 | 23.8 | 3.4 | 2.0 | – | -1.0 | 15.7 | -7.3 | -2.5 | – | 0 | 0 | 0 | – |
